Test results published in patent publication US20090325923A1, “NEW METHOD FOR THE TREATMENT OF INFLAMMATORY DISEASES” (TOPOTARGET SWITZERLAND SA, priority 2006, published 2009).

What was measured:
[1] = tested on: Human monocytic cell line THP-1; experiment: LPS-stimulated cytokine secretion by ELISA in THP-1 cells; type: cell-based
Protocol: (§1) Human monocytic cell line THP-1 was cultured overnight in the presence of graded doses of nicotinic acid (NA), a precursor of NAD, and then stimulated with lipopolysaccharide (LPS) from gram-negative bacteria for 2 h. The cell supernatant was tested for tumor necrosis factor (TNF) content by ELISA and the intracellular pool of NAD was measured by an enzymatic assay.
(§2) Human monocytic cell line THP-1, human peripheral blood mononuclear cells (PBMC), human monocyte-derived dendritic cells, or mouse peritoneal macrophages were isolated and cultured overnight with increasing doses of FK866, and then stimulated with LPS for 6 h. The culture supernatants were tested for TNF and IL-6 content by ELISA
THP-1 cells were incubated in the presence of 10 nM FK866 and graded doses of NMN. Cells were further stimulated with LPS and intracellular NAD levels and TNFα secretion were determined using standard assays.
as §1, with “This example illustrates the direct relationship between NAD levels in cells and pro-inflammatory cytokine secretion. Human” for “Human”, “of” for “of graded doses of”, “acid,” for “acid (NA),”
as §2, with “This example describes the inhibition of pro-inflammatory cytokines production by the competitive small molecular weight compound inhibitor of NMPRT, ((E)-N-[4-(1-benzoylpiperidin-4-yl)butyl]-3-(pyridin-3-yl)acrylamide, designated FK866). Human” for “Human”, “ELISA.” for “ELISA”
This example illustrates that NAMPT is the only molecular target of FK866. […]

[2] = tested on: Human monocytic cell line THP-1; experiment: Intracellular NAD by enzymatic assay in THP-1 cells; type: cell-based
Protocol: The human THP-1 monocytic cell line was cultured in the presence of medium or FK866 and stimulated by LPS.

[3] = tested on: RAW264.7 cell line; experiment: LPS-stimulated TNF secretion by ELISA in RAW264.7 cells; type: cell-based, mouse; conditions: RAW264.7 cultured overnight with FK866 plus the added substance, LPS 2 h
Protocol: The murine RAW264.7 cell line was stimulated with LPS in the presence of FK866. TNF protein concentrations were determined by ELISA (above panel) while mRNA levels were determined by RT-PCR (below panel).
(§3) (A) The mouse macrophage cell line RAW264.7 was cultured overnight with increasing doses of FK866, and then stimulated with LPS for 2 h. The culture supernatants were tested for TNF content by ELISA and intracellular NAD levels were measured by an enzymatic assay.
(§4) (B) RAW264.7 cells were cultured overnight in the presence of FK866 and the intracellular pool of NAD was restored by co-incubation of the cells with nicotinic acid (NA). Cells were then stimulated with LPS for 2 h and the culture supernatant was tested for TNF content by ELISA.
(§5) (C) RAW264.7 cells were cultured overnight in the presence of FK866 and NAD levels were maintained by culturing the cells in the presence of extracellular NAD. Cells were then stimulated with LPS for 2 h and the culture supernatant was tested for TNF content by ELISA.
This example illustrates that FK866 inhibits TNFα secretion at a posttranscriptional level. The murine RAW 264.7 cell line was incubated in the presence of graded doses of FK866, stimulated with microbial products, and levels of TNFα released in the supernatant evaluated by ELISA.
as §3, with “This example illustrates the correlation between proinflammatory cytokine secretion and NAD levels in the cell.” for “(A)”
as §4, with “In another experiment,” for “(B)”, “nicotinic acid. Nicotinic” for “nicotinic”, “is a precursor of NAD, but its transformation into NAD is not dependent upon NMPRT and is thus not inhibited by FK866.” for “(NA).”
(§6) In another experiment, RAW264.7 cells were cultured overnight in the presence of FK866 and NAD levels were maintained by culturing the cells in the presence: of extra-cellular NAD. Cells were then stimulated with LPS for 2 h and the culture supernatant was tested for TNF content by ELISA.

[4] = tested on: RAW264.7 cell line; experiment: Intracellular NAD by enzymatic assay in RAW264.7 cells; type: cell-based, mouse; conditions: RAW264.7 cultured overnight with FK866 plus the added substance, LPS 2 h
Protocol: as §3, §4, §5
as §3, with “This example illustrates the correlation between proinflammatory cytokine secretion and NAD levels in the cell.” for “(A)”
as §4, with “In another experiment,” for “(B)”, “nicotinic acid. Nicotinic” for “nicotinic”, “is a precursor of NAD, but its transformation into NAD is not dependent upon NMPRT and is thus not inhibited by FK866.” for “(NA).”
as §6

[5] = tested on: collagen-induced arthritis; experiment: Collagen-induced arthritis (CIA) mouse model; type: in vivo; conditions: FK866 10 mg/kg ip twice daily or etanercept 15 mg/kg every three days, over 15 days
[6] = THP-1, 10 nM FK866 and graded doses of NMN, LPS

NC(=O)c1ccc[n+]([C@@H]2O[C@H](COP(=O)([O-])O)[C@@H](O)[C@H]2O)c1 [nicotinamide mononucleotide (NMN), nicotinamide mononucleotide]
TNFα production despite exposure to FK866 [1, 6]: restored | intracellular NAD levels despite exposure to FK866 [2, 6]: restored

O=C(O)c1cccnc1 [nicotinic acid]
TNF secretion ([1]; THP-1 cultured overnight with graded doses of nicotinic acid, LPS 2 h, ELISA): increased in parallel in a dose-dependent fashion | intracellular NAD levels ([2]; THP-1 cultured overnight with graded doses of nicotinic acid, LPS 2 h): increased in parallel in a dose-dependent fashion | TNF synthesis in the presence of FK866 [3]: restored | NAD levels in the presence of FK866 [4]: maintained high levels of NAD

etanercept
severity of arthritis in CIA mice [5]: P<0.05 FK866 or etanercept versus placebo

NC(=O)c1ccc[n+]([C@@H]2O[C@H](COP(=O)([O-])OP(=O)(O)OC[C@H]3O[C@@H](n4cnc5c(N)ncnc54)[C@H](O)[C@@H]3O)[C@@H](O)[C@H]2O)c1 [NAD, nicotinamide adenyl dinucleotide]
TNF synthesis in the presence of FK866 [3]: restored | NAD levels in the presence of FK866 [4]: remained high
